Experimental data from patent publication US10526580B2, “Differentiated cell population of endothelial cells derived from human pluripotent stem cells, composition, system, kit and uses thereof” (BIOCANT-ASSOCIAÇÃO DE TRANSFERÊNCIA DE TECNOLOGIA, priority 2012, dated 2020).

Key:
CD31+ cells = assay: Shh and Notch signaling modulators, arterial and venous marker expression in CD31+ cells; format: cell-based, human; conditions: for expression of arterial marker EphB2: cyclopamine 5 μM and Notch inhibitor L685458 1 μM together; for expression of arterial EC markers EphB2 (protein level), HEY-2, JAG-1 and EFNB1 (gene level) / expression of venous EC markers Lefty-1 and Lefty-2: purmorphamine 1 μM and DLL4 100 ng/mL together, versus cells without activators
Procedure: hESC culture and differentiation. Undifferentiated hESCs (passages 33-36; H9, WiCell, Wisconsin) or hiPSCs K2 (passages 32-35; cord blood derived iPSCs kindly donated by Ulrich Martin) were grown on an inactivated mouse embryonic fibroblast (MEF) feeder layer, as previously described 1, 2. To induce the formation of EBs, the undifferentiated hESCs were treated with 2 mg/mL type IV collagenase (Invitrogen) for 2 h and then transferred (2:1) to low attachment plates (Corning) containing 10 mL of differentiation medium [80% KO-DMEM, 20% fetal bovine serum (FBS, Invitrogen), 0.5% L-glutamine, 0.2% β-mercaptoethanol, 1% nonessential amino acids]. The differentiation medium was supplemented with VEGF165 (50 ng/mL, Prepotech), Tβ4 (100 ng/mL, Caslo) and SB431542 (10 μM, Tocris) according to the following timeline: [(VEGF165)days0-18+(Tβ4)days4-18+(SB431542)days7-18]. After 4 days in suspension, EBs were plated onto 1% gelatin-coated dishes and grown for 14 additional days. Medium was changed every 2-3 days. To evaluate the contribution of Shh and Notch signaling pathways, the differentiation medium was supplemented with one or two of the following agents: 1 μM purmorphamine (Shh activator; Cayman Chemical), 5 μM cyclopamine (Shh inhibitor; Sigma), 100 ng/ml DLL-4 (Notch activator; Prepotech), or 1 μM Y^−-secretase inhibitor L685458 (Notch inhibitor; Tocris Biosciences) 47.
Arterial and venous gene expression was analyzed in CD31^+ cells at the time of their isolation. […] Because arterial/vein specification during mouse embryogenesis is in large part mediated by Notch and Sonic Hedgehog (Shh), the expression of Notch (Notch1, Notch2, Notch3, Notch4) and Shh (patched 1) receptors as well as Notch (DLL1, DLL3, DLL4, JAG-1, JAG-2) and Shh transcription factors (GLI1 and SMO) in CD31^+ cells was assessed (FIG. 1E). […] Was also studied the involvement of Notch and Shh signaling pathways in the gene expression of arterial and venous markers in cells after CD31^+ cell isolation. The independent activation of each signaling pathway has little impact in the expression of arterial marker EphB2 (FIG. 1F).

hESC-derived ECs = assay: Vascular toxicity of terbinafine in static or flow culture (morphology, qRT-PCR, ELISA); format: cell-based, human
Procedure: (§1) Fluidic shear stress experiments. HESC-derived ECs (2.6×10^6 cells/mL), HUAECs, HUVECs were seeded on flow chamber untreated-slides (μ-slide 0.4, luer, IBIDI) and grown until confluence. Using a programmed IBIDI pump with positive pressure, the cell monolayer was perfused with EGM-2 medium for 7 days, at flow rate of 15.1 mL/min (corresponding to shear stress of 20 dyne/cm2), or 3.02 mL/min (corresponding to shear stress of 4 dyne/cm2). After 7 days the flow was stopped, the cells imaged, and then stained or collected for posterior gene analysis. Medium was collected for ELISA assays. In some experiments, cells were cultured in medium supplemented with terbinafine (0.1 μM or 1 μM) (Sigma) for a maximum of 24 h, under shear stress. Static controls were performed in the chamber coated-slides but without flow. The IBIDI slides allow a laminar perfusion in rectangular flow geometry.
(§2) Evaluation of the levels of vascular injury by specific markers. ELISA kits analyzed supernatants collected from the shear stress experiments for vWF and vWFpp (Gen-Probe GTI Diagnostic) and ADMA (Enzo Life Sciences), according to manufacturer's recommendations.
Terbinafine is an antifungal agent (inhibitor of ergosterol synthesis) that inhibits angiogenesis by suppressing endothelial cell proliferation, inhibits DNA synthesis and activates EC apoptosis^34, 35. Terbinafine is cytotoxic for HUVECs for concentrations above 120 μM^35. To determine whether the hESC-derived ECs cultured under flow conditions could be used to assess vascular toxicity, cells were cultured for 7 days at 20 dyne/cm2 after which the culture medium was supplemented or not with terbinafine (0.1 and 1 μM) and cells cultured under the same flow conditions for one more day. […] Next, was assessed by qRT-PCR the expression of genes involved in inflammation (ICAM-1; E-selectin), oxidative stress sensing (HO-1) and vasculature modulation (eNOS) in hESC-derived cells and control HUAEC after exposition to terbinafine (FIG. 3B). As expected, the expression of these genes increases under fluidic shear stress^36. […] Upregulation of some genes (HO-1 and E-selectin) was only observed for concentrations of 1 μM in HUAECs. […] ADMA is a naturally occurring amino acid that circulates in plasma and is generated by degradation of methylated proteins. Increase levels of ADMA inhibits nitric oxide (NO) production by competitive inhibition of the physiological substrate L-arginine^38. Drugs that inhibit NO pathway, upregulate caveolin-1 expression and/or enhance ADMA levels could potentially be associated with drug-induced endothelial dysfunction. Therefore, increased circulating levels of ADMA may serve as predictive marker of EC dysfunction^38. […] Such effect was not observed for HUAECs cultured under the same conditions. […] In addition, hESC-derived ECs are more sensitive to the effect of terbinafine than HUAECs.
Next, the vascular damage/injury induced by terbinafine was assessed in hESC-derived ECs and control HUAECs, in the same conditions as before, by measuring the levels of ADMA and the ratio von Willebrand factor pro-peptide (vWFpp): von Willebrand factor (vWF) secreted by these cells (FIG. 3C). The last 2 proteins with different biological activity are released in equimolar concentrations in plasma and an increased level of both proteins predicts EC activation/injury. […] Remarkably, hESC-derived ECs cultured under flow conditions in the presence of terbinafine secrete higher levels of ADMA and vWFpp:vWF than without the drug. Again, the sensitivity of HUAECs to terbinafine was lower than hESC-derived ECs. The concentration of ADMA secreted by hESC-derived cells at 24 h is 3.5 times higher than in basal conditions. Importantly, this shift in concentration is observed in human patients with cardiovascular diseases. Healthy persons have an average of 0.45±0.19 μmol of ADMA per liter of blood and this value increases 2.2 or 2.7 folds when the patient has idiopathic pulmonary arterial hypertension^37. […]

HUAECs = assay: Vascular toxicity of terbinafine in static or flow culture (qRT-PCR, ELISA); format: cell-based, human
Procedure: as §1, §2
Terbinafine is an antifungal agent (inhibitor of ergosterol synthesis) that inhibits angiogenesis by suppressing endothelial cell proliferation, inhibits DNA synthesis and activates EC apoptosis^34, 35. Terbinafine is cytotoxic for HUVECs for concentrations above 120 μM^35. To determine whether the hESC-derived ECs cultured under flow conditions could be used to assess vascular toxicity, cells were cultured for 7 days at 20 dyne/cm2 after which the culture medium was supplemented or not with terbinafine (0.1 and 1 μM) and cells cultured under the same flow conditions for one more day. […] Next, was assessed by qRT-PCR the expression of genes involved in inflammation (ICAM-1; E-selectin), oxidative stress sensing (HO-1) and vasculature modulation (eNOS) in hESC-derived cells and control HUAEC after exposition to terbinafine (FIG. 3B). As expected, the expression of these genes increases under fluidic shear stress^36. […] Upregulation of some genes (HO-1 and E-selectin) was only observed for concentrations of 1 μM in HUAECs. […] ADMA is a naturally occurring amino acid that circulates in plasma and is generated by degradation of methylated proteins. Increase levels of ADMA inhibits nitric oxide (NO) production by competitive inhibition of the physiological substrate L-arginine^38. […]
Next, the vascular damage/injury induced by terbinafine was assessed in hESC-derived ECs and control HUAECs, in the same conditions as before, by measuring the levels of ADMA and the ratio von Willebrand factor pro-peptide (vWFpp): von Willebrand factor (vWF) secreted by these cells (FIG. 3C). […]

HUVECs = conditions: cited from earlier work
[1] = flow conditions, medium supplemented with terbinafine

CC(C)C[C@H](NC(=O)[C@H](Cc1ccccc1)C[C@@H](O)[C@H](Cc1ccccc1)NC(=O)OC(C)(C)C)C(=O)N[C@@H](Cc1ccccc1)C(N)=O [L685458]
expression of arterial marker EphB2 (CD31+ cells): significantly decreased

CC1=C2C[C@H]3[C@@H](CC=C4C[C@@H](O)CC[C@@]43C)[C@@H]2CC[C@]12O[C@@H]1C[C@H](C)CN[C@H]1[C@H]2C [cyclopamine]
expression of arterial marker EphB2 (CD31+ cells): significantly decreased

c1ccc2c(Oc3nc(Nc4ccc(N5CCOCC5)cc4)c4ncn(C5CCCCC5)c4n3)cccc2c1 [purmorphamine]
expression of arterial EC markers EphB2 (protein level), HEY-2, JAG-1 and EFNB1 (gene level) (CD31+ cells): significantly increased
expression of venous EC markers Lefty-1 and Lefty-2 (CD31+ cells): decreased

CN(C/C=C/C#CC(C)(C)C)Cc1cccc2ccccc12 [terbinafine]
changes in EC morphology and cadherin expression (hESC-derived ECs; flow 20 dyne/cm2, terbinafine 0.1 and 1 μM, day 8): No significant changes
secretion of ADMA and vWFpp:vWF versus without the drug (hESC-derived ECs; flow conditions, ELISA): higher levels
concentration of ADMA secreted, relative to basal conditions (hESC-derived ECs; flow conditions, at 24 h, ELISA): 3.5 times
expression of DDAH1 and DDAH2 (hESC-derived ECs; [1]): significant decrease
secretion of ADMA or vWFpp:vWF versus control conditions (hESC-derived ECs; static conditions, ELISA): no significant higher secretion
expression of ICAM-1, E-selectin, HO-1 and eNOS genes (qRT-PCR) (hESC-derived ECs; terbinafine at 0.1 μM, flow 20 dyne/cm2, 24 h): higher
concentration at which upregulation of some genes (HO-1 and E-selectin) was observed (HUAECs; flow 20 dyne/cm2, 24 h): 1000 nM
secretion of vWFpp:vWF (HUAECs; flow conditions, exposed to terbinafine, ELISA): higher levels
decrease in the expression of DDAH1 and DDAH2 (HUAECs; [1]): not observed
secretion of ADMA or vWFpp:vWF versus control conditions (HUAECs; static conditions, ELISA): no significant higher secretion
concentrations cytotoxic for HUVECs (HUVECs): above 120 μM

DLL4: Notch activator
expression of arterial EC markers EphB2 (protein level), HEY-2, JAG-1 and EFNB1 (gene level) (CD31+ cells): significantly increased
expression of venous EC markers Lefty-1 and Lefty-2 (CD31+ cells): decreased
